Measurements taken from ChEMBL document CHEMBL1144021, “Molecular determinants of the anticonvulsant felbamate binding site in the N-methyl-D-aspartate receptor” (J Med Chem, 2008).
The source made the active and inactive calls. The calls are words filed in the database; no cut-off is given here.

Assays:
[1] = system: Glutamate receptor ionotropic, NMDA 2B (Homo sapiens), Q13224 [W559A]; test: Inhibition of NR2B receptor Pre-M1 W559A mutant expressed in Xenopus oocytes assessed as NMDA current at 0.5 mM relative to control; format: cell-based; conditions: Oocyte
[2] = system: Glutamate receptor ionotropic, NMDA 2B (Homo sapiens), Q13224 [L643A,S645A]; test: Binding affinity to NR2B receptor L643A/S645A mutant
[3] = system: Glutamate receptor ionotropic, NMDA 2B (Homo sapiens), Q13224 [F176A]; test: Binding affinity to NR2B receptor ATD F176A mutant
[4] = Binding affinity to NR2B receptor […]/T103A mutant
[5] = system: Glutamate receptor ionotropic, NMDA 2B (Homo sapiens), Q13224 [L643A,T103A]; test: Binding affinity to NR2B receptor L643A/T103A mutant
[6] = Ratio of Kapp for wild type NR2B receptor to Kapp for NR2B receptor L643A/K234A mutant
[7] = system: Glutamate receptor ionotropic, NMDA 2B (Homo sapiens), Q13224 [D557A]; test: Inhibition of NR2B receptor Pre-M1 D557A mutant expressed in Xenopus oocytes assessed as NMDA current at 0.5 mM relative to control; format: cell-based; conditions: Oocyte
Glutamate receptor ionotropic, NMDA 2B (Homo sapiens), Q13224 [D557A], sequence (Q13224 whole entry D557A): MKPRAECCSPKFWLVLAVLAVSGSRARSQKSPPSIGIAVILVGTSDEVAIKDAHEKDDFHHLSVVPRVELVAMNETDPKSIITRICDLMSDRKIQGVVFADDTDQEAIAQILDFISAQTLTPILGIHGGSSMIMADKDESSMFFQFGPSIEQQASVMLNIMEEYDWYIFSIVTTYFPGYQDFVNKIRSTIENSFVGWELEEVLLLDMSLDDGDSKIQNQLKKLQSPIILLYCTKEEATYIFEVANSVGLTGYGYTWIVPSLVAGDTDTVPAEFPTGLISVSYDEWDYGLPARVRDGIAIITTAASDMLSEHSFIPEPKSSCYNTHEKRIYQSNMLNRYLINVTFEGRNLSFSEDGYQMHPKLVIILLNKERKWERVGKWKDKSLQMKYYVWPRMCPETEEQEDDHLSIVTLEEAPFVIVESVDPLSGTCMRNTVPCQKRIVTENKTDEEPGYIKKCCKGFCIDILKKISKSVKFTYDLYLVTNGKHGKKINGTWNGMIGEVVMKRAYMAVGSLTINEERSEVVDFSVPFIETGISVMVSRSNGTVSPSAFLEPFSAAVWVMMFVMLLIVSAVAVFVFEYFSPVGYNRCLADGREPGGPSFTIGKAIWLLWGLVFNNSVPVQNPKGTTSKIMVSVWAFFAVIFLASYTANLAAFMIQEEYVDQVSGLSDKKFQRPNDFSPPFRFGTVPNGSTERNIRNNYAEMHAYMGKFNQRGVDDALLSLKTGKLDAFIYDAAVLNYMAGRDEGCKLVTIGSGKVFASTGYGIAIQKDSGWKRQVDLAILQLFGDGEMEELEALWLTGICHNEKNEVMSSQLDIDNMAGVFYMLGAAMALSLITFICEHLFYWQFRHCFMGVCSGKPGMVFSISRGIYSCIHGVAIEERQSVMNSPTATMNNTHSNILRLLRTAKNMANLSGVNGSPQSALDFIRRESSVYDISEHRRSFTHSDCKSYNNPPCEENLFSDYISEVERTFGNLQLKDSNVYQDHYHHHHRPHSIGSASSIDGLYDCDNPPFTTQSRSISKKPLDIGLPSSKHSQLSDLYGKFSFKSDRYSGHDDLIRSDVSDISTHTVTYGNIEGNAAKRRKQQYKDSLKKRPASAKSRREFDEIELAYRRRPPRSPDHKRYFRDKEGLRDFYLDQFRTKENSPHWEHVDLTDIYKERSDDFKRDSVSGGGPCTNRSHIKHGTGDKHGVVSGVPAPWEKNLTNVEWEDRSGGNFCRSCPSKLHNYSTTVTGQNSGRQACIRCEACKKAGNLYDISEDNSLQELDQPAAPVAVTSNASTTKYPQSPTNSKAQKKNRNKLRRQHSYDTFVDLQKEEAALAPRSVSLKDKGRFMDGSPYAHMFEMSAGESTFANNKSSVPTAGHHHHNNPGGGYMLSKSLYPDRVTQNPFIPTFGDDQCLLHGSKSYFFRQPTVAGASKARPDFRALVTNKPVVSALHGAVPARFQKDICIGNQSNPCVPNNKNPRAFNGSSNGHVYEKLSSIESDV

[8] = system: Glutamate receptor ionotropic, NMDA 2B (Homo sapiens), Q13224 [F554A]; test: Inhibition of NR2B receptor Pre-M1 F554A mutant expressed in Xenopus oocytes assessed as NMDA current at 0.5 mM relative to control; format: cell-based; conditions: Oocyte
[9] = Ratio of Kapp for wild type NR2B receptor to Kapp for NR2B receptor ATD D101A mutant
[10] = system: Glutamate receptor ionotropic, NMDA 2B (Homo sapiens), Q13224 [N542A]; test: Inhibition of NR2B receptor Pre-M1 N542A mutant expressed in Xenopus oocytes assessed as NMDA current at 0.5 mM relative to control; format: cell-based; conditions: Oocyte
[11] = system: Glutamate receptor ionotropic, NMDA 2B (Homo sapiens), Q13224 [D101A]; test: Inhibition of NR2B receptor ATD D101A mutant expressed in Xenopus oocytes assessed as NMDA current at 0.5 mM relative to control; format: cell-based; conditions: Oocyte
Glutamate receptor ionotropic, NMDA 2B (Homo sapiens), Q13224 [D101A], sequence (Q13224 whole entry D101A): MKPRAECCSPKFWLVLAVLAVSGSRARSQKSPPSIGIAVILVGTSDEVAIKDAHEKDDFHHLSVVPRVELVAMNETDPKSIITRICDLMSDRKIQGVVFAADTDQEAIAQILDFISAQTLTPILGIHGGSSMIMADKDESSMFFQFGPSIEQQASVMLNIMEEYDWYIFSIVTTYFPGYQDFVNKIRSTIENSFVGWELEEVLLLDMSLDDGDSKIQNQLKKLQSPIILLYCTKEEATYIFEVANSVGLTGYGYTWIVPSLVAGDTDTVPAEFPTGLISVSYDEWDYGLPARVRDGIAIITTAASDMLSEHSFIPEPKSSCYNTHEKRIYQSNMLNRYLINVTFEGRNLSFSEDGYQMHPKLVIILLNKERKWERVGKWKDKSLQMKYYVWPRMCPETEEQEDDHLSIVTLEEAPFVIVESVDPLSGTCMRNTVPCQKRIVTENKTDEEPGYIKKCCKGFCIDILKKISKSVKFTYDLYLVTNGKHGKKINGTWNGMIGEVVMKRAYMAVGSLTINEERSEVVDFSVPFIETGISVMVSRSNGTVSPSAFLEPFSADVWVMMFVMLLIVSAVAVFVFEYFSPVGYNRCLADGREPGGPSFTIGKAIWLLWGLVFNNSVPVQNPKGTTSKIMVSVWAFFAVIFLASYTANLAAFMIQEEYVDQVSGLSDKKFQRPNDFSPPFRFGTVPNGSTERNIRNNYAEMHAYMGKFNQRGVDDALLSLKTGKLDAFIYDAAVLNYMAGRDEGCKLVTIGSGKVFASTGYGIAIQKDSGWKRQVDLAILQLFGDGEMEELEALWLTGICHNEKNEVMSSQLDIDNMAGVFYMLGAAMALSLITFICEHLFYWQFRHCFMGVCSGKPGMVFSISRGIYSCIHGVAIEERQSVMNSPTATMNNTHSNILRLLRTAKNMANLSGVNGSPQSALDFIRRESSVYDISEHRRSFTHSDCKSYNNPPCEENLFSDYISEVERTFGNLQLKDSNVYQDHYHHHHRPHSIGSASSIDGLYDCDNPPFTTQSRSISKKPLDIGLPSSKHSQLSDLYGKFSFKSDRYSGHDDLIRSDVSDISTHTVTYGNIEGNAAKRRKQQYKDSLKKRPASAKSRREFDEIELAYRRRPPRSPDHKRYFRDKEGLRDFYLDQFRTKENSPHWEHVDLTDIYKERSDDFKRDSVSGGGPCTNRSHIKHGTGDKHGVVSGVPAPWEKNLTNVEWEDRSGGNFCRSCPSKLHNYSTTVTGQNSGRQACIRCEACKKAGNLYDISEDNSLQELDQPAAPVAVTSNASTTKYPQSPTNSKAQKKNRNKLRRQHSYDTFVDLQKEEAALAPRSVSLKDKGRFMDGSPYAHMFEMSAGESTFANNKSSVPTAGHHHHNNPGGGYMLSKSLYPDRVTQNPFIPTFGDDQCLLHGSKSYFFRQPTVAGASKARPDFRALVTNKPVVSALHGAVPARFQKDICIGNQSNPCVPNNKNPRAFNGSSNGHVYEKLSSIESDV

[12] = system: Glutamate receptor ionotropic, NMDA 2B (Homo sapiens), Q13224 [T233A]; test: Binding affinity to NR2B receptor ATD T233A mutant
[13] = system: Glutamate receptor ionotropic, NMDA 2B (Homo sapiens), Q13224 [E236A]; test: Inhibition of NR2B receptor ATD E236A mutant expressed in Xenopus oocytes assessed as NMDA current at 0.5 mM relative to control; format: cell-based; conditions: Oocyte
[14] = system: Glutamate receptor ionotropic, NMDA 2B (Homo sapiens), Q13224 [V558A]; test: Inhibition of NR2B receptor Pre-M1 V558A mutant expressed in Xenopus oocytes assessed as NMDA current at 0.5 mM relative to control; format: cell-based; conditions: Oocyte
Glutamate receptor ionotropic, NMDA 2B (Homo sapiens), Q13224 [V558A], sequence (Q13224 whole entry V558A): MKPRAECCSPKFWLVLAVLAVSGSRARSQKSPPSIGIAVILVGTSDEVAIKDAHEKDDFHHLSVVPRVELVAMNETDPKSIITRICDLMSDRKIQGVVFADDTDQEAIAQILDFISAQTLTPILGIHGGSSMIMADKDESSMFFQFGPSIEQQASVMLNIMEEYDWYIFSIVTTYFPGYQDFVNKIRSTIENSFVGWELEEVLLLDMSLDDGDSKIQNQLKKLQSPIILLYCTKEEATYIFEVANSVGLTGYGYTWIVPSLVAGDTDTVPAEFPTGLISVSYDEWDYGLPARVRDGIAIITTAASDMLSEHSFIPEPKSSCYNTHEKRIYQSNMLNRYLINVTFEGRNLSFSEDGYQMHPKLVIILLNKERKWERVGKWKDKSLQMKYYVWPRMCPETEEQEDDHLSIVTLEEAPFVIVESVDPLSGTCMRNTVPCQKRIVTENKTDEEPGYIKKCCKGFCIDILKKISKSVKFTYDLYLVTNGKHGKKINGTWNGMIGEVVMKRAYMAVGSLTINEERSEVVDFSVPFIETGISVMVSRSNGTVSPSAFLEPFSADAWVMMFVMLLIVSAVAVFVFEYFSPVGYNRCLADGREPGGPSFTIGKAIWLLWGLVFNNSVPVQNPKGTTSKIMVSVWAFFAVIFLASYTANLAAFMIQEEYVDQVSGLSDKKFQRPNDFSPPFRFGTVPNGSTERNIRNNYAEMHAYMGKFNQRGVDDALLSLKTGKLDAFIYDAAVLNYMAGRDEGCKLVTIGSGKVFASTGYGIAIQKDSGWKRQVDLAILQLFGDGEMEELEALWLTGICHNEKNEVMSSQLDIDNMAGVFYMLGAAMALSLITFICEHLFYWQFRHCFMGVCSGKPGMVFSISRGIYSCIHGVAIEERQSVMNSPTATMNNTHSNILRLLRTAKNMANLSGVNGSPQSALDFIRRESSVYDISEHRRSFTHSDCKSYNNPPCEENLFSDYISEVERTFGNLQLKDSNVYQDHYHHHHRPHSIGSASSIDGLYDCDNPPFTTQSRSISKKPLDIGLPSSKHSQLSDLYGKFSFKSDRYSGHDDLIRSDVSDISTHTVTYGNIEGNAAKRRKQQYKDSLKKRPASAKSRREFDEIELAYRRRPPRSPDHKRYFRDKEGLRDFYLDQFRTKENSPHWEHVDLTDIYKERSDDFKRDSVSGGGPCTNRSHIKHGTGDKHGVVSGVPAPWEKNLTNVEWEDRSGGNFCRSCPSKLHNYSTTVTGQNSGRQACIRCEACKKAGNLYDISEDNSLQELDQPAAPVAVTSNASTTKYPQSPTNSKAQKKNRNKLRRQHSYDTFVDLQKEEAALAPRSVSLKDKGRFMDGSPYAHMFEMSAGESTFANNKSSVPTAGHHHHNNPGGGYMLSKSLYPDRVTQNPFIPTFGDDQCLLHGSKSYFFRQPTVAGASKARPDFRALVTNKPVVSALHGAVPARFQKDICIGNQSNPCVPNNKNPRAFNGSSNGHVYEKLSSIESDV

[15] = Ratio of Kapp for wild type NR2B receptor to Kapp for NR2B receptor T647A/K234A mutant
[16] = Binding affinity to NR2B receptor […]/K234A mutant
[17] = system: Glutamate receptor ionotropic, NMDA 2B (Homo sapiens), Q13224 [L650A]; test: Inhibition of NR2B receptor M3c L650A mutant expressed in Xenopus oocytes assessed as NMDA current at 0.5 mM relative to control; format: cell-based; conditions: Oocyte

**Q.** For `NC(=O)OCC(COC(N)=O)c1ccccc1`, which Activity [1] is on record?
**A.** The Activity was “inactive”.

**Q.** What about the Kapp [2] of the same molecule?
**A.** The Kapp was 6.68 mM.

**Q.** And the Kapp [3]?
**A.** The Kapp was 2.77 mM.

**Q.** What about the Kapp [4] of the same molecule?
**A.** Its Kapp is 6.73 mM.

**Q.** What about the Kapp [5] of the same molecule?
**A.** Its Kapp is 5.07 mM.

**Q.** What about the Ratio Ki(app) [6] of the same molecule?
**A.** Its Ratio Ki(app) is 7.3.

**Q.** What about the inhibition [7] of the same molecule?
**A.** Its inhibition is 75%.

**Q.** What about the Activity [8] of the same molecule?
**A.** Its Activity is “inactive”.

**Q.** What about the Ratio Ki(app) [9] of the same molecule?
**A.** Its Ratio Ki(app) is 3.2.

**Q.** And the inhibition [10]?
**A.** Its inhibition is 73%.

**Q.** And the inhibition [11]?
**A.** The inhibition was 83%.

**Q.** What about the Kapp [12] of the same molecule?
**A.** Its Kapp is 2.56 mM.

**Q.** What about the inhibition [13] of the same molecule?
**A.** Its inhibition is 83%.

**Q.** What about the inhibition [14] of the same molecule?
**A.** The inhibition was 71%.

**Q.** And the Ratio Ki(app) [15]?
**A.** The Ratio Ki(app) was 8.

**Q.** What about the Kapp [16] of the same molecule?
**A.** The Kapp was 7 mM.

**Q.** And the inhibition [17]?
**A.** The inhibition was 76%.
